# System: 233499-124-R-J3-PDC complex spheroid growth
# Test: Anticancer human tumor 233499-124-R-J3-PDC patient-derived colon adenocarcinoma cell line growth inhibition [AhR]
# Settings: for IC50: curve of first compound; for viability, T/C: stronger effect = lower value
# How it was run: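 Complex tumor spheroids co-cultured with HUVEC and human MSC stroma; AhR antagonists tested in combination with standard-of-care and investigational agents. Top concentration at or near clinical Cmax (else 10 microM), half-log dilutions; growth expressed as percent test/control.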
# [1] = second compound 0.1 µM, first compound 0.0316 µM
# [2] = second compound 0.1 µM, first compound 0.1 µM
# [3] = second compound 0.1 µM, first compound 0.316 µM
# [4] = second compound 0.1 µM, first compound 1 µM
# [5] = second compound 0.1 µM, first compound 3.16 µM
# [6] = second compound 0.1 µM, first compound 10 µM
# [7] = second compound 0.316 µM, first compound 0.0316 µM
# [8] = second compound 0.316 µM, first compound 0.1 µM
# [9] = second compound 0.316 µM, first compound 0.316 µM
# [10] = second compound 0.316 µM, first compound 1 µM
# [11] = second compound 0.316 µM, first compound 3.16 µM
# [12] = second compound 0.316 µM, first compound 10 µM
# [13] = second compound 1 µM, first compound 0.0316 µM
# [14] = second compound 1 µM, first compound 0.1 µM
# [15] = second compound 1 µM, first compound 0.316 µM
# [16] = second compound 1 µM, first compound 1 µM
# [17] = second compound 1 µM, first compound 3.16 µM
# [18] = second compound 1 µM, first compound 10 µM
# [19] = second compound 3.16 µM, first compound 0.0316 µM
# [20] = second compound 3.16 µM, first compound 0.1 µM
# [21] = second compound 3.16 µM, first compound 0.316 µM
# [22] = second compound 3.16 µM, first compound 1 µM
# [23] = second compound 3.16 µM, first compound 3.16 µM
# [24] = second compound 3.16 µM, first compound 10 µM
# [25] = second compound 10 µM, first compound 0.0316 µM
# [26] = second compound 10 µM, first compound 0.1 µM
# [27] = second compound 10 µM, first compound 0.316 µM
# [28] = second compound 10 µM, first compound 1 µM
# [29] = second compound 10 µM, first compound 3.16 µM
# [30] = second compound 10 µM, first compound 10 µM
# 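Also: spheroids exposed to agents for seven days before reading.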
compound,measurement,setting,value
CC(C)CC(NC(=O)C(Cc1ccccc1)NC(=O)c1cnccn1)B(O)O (stereo not given) + Cc1ccccc1N=Nc1ccc(NC(=O)c2ccnn2C)c(C)c1,IC50,second compound 0.1 µM,0.0163 µM
same,IC50,second compound 0.316 µM,0.0165 µM
same,IC50,second compound 1 µM,0.0182 µM
same,IC50,second compound 3.16 µM,0.0156 µM
same,IC50,second compound 10 µM,0.0173 µM
same,"viability, T/C","second compound 0.1 µM, first compound 0.000949 µM",103%
same,"viability, T/C","second compound 0.1 µM, first compound 0.003 µM",110%
same,"viability, T/C","second compound 0.1 µM, first compound 0.00949 µM",94.1%
same,"viability, T/C","second compound 0.1 µM, first compound 0.03 µM",0.26%
same,"viability, T/C","second compound 0.1 µM, first compound 0.0949 µM",0.06%
same,"viability, T/C","second compound 0.1 µM, first compound 0.3 µM",0.13%
same,"viability, T/C","second compound 0.316 µM, first compound 0.000949 µM",99.4%
same,"viability, T/C","second compound 0.316 µM, first compound 0.003 µM",108%
same,"viability, T/C","second compound 0.316 µM, first compound 0.00949 µM",94.5%
same,"viability, T/C","second compound 0.316 µM, first compound 0.03 µM",1.73%
same,"viability, T/C","second compound 0.316 µM, first compound 0.0949 µM",0.06%
same,"viability, T/C","second compound 0.316 µM, first compound 0.3 µM",0.13%
same,"viability, T/C","second compound 1 µM, first compound 0.000949 µM",111%
same,"viability, T/C","second compound 1 µM, first compound 0.003 µM",110%
same,"viability, T/C","second compound 1 µM, first compound 0.00949 µM",98.1%
same,"viability, T/C","second compound 1 µM, first compound 0.03 µM",12.9%
same,"viability, T/C","second compound 1 µM, first compound 0.0949 µM",0.64%
same,"viability, T/C","second compound 1 µM, first compound 0.3 µM",0.14%
same,"viability, T/C","second compound 3.16 µM, first compound 0.000949 µM",111%
same,"viability, T/C","second compound 3.16 µM, first compound 0.003 µM",96.9%
same,"viability, T/C","second compound 3.16 µM, first compound 0.00949 µM",83.8%
same,"viability, T/C","second compound 3.16 µM, first compound 0.03 µM",5.62%
same,"viability, T/C","second compound 3.16 µM, first compound 0.0949 µM",0.09%
same,"viability, T/C","second compound 3.16 µM, first compound 0.3 µM",0.14%
same,"viability, T/C","second compound 10 µM, first compound 0.000949 µM",106%
same,"viability, T/C","second compound 10 µM, first compound 0.003 µM",108%
same,"viability, T/C","second compound 10 µM, first compound 0.00949 µM",105%
same,"viability, T/C","second compound 10 µM, first compound 0.03 µM",0.37%
same,"viability, T/C","second compound 10 µM, first compound 0.0949 µM",0.18%
same,"viability, T/C","second compound 10 µM, first compound 0.3 µM",0.22%
COc1cc(Nc2ncc3c(n2)-c2ccc(Cl)cc2C(c2c(F)cccc2OC)=NC3)ccc1C(=O)O + Cc1ccccc1N=Nc1ccc(NC(=O)c2ccnn2C)c(C)c1,IC50,second compound 0.1 µM,> 10 µM
same,IC50,second compound 0.316 µM,> 10 µM
same,IC50,second compound 1 µM,> 10 µM
same,IC50,second compound 3.16 µM,> 10 µM
same,IC50,second compound 10 µM,> 10 µM
same,"viability, T/C",[1],92.5%
same,"viability, T/C",[2],81.9%
same,"viability, T/C",[3],96.3%
same,"viability, T/C",[4],98.5%
same,"viability, T/C",[5],86.5%
same,"viability, T/C",[6],96.7%
same,"viability, T/C",[7],83.1%
same,"viability, T/C",[8],77.5%
same,"viability, T/C",[9],96.4%
same,"viability, T/C",[10],93.1%
same,"viability, T/C",[11],96.6%
same,"viability, T/C",[12],84.2%
same,"viability, T/C",[13],89%
same,"viability, T/C",[14],93.2%
same,"viability, T/C",[15],90.4%
same,"viability, T/C",[16],87.2%
same,"viability, T/C",[17],97.5%
same,"viability, T/C",[18],92.1%
same,"viability, T/C",[19],91.5%
same,"viability, T/C",[20],80.4%
same,"viability, T/C",[21],102%
same,"viability, T/C",[22],105%
same,"viability, T/C",[23],85.2%
same,"viability, T/C",[24],100%
same,"viability, T/C",[25],109%
same,"viability, T/C",[26],101%
same,"viability, T/C",[27],102%
same,"viability, T/C",[28],101%
same,"viability, T/C",[29],116%
same,"viability, T/C",[30],115%
NS(=O)(=O)OCC1CC(n2ccc3c(NC4CCc5ccccc54)ncnc32)CC1O (stereo not given) + Cc1ccccc1N=Nc1ccc(NC(=O)c2ccnn2C)c(C)c1,IC50,second compound 0.1 µM,0.409 µM
same,IC50,second compound 0.316 µM,0.442 µM
same,IC50,second compound 1 µM,0.395 µM
same,IC50,second compound 3.16 µM,0.475 µM
same,IC50,second compound 10 µM,0.637 µM
same,"viability, T/C",[1],110%
same,"viability, T/C",[2],113%
same,"viability, T/C",[3],61.3%
same,"viability, T/C",[4],10.8%
same,"viability, T/C",[5],2.55%
same,"viability, T/C",[6],3.77%
same,"viability, T/C",[7],125%
same,"viability, T/C",[8],96.6%
same,"viability, T/C",[9],68.1%
same,"viability, T/C",[10],16.6%
same,"viability, T/C",[11],3.6%
same,"viability, T/C",[12],2.37%
same,"viability, T/C",[13],116%
same,"viability, T/C",[14],103%
same,"viability, T/C",[15],58.2%
same,"viability, T/C",[16],15.8%
same,"viability, T/C",[17],3.88%
same,"viability, T/C",[18],3.13%
same,"viability, T/C",[19],115%
same,"viability, T/C",[20],97.5%
same,"viability, T/C",[21],70.8%
same,"viability, T/C",[22],14.6%
same,"viability, T/C",[23],2.81%
same,"viability, T/C",[24],3.25%
same,"viability, T/C",[25],109%
same,"viability, T/C",[26],108%
same,"viability, T/C",[27],83.6%
same,"viability, T/C",[28],28.6%
same,"viability, T/C",[29],4.02%
same,"viability, T/C",[30],3.01%

# Reference: PubChem BioAssay AID1918993 (Molecular Pharmacology Branch, DTP, NCI, 2023)
